This is an account of results in patent US7153826B2, “Treatment of rosacea” (Seatek Marine Biotechnology, Inc., priority 2000, dated 2006).

[ ]: non-standard residue; d: D form. Orn = NCCC[C@H](N)C(=O)O

Experiment [1] has as its system rosacea. Briefly: Topical treatment of a subject afflicted with rosacea, two-year trial period (Example 2). It counts as in vivo, human. The text has this:
A subject afflicted with rosacea received topical Metrogel™ overlayed with Lubriderm™ lotion in the morning and 1% loloatin B formulated in Lubriderm™ (as described above) in the evening. […] With this combined treatment, the rosacea was controlled such that only a few lesions were present at any given time, and complete remissions of several days duration became common.

The test system of experiment [2] is rosacea. Briefly: Topical treatment of a human subject with moderately severe rosacea and pustular lesions (Example 1). It counts as in vivo. Here is the method:
The effectiveness of a cyclic decapeptide antibiotic for treating rosacea was determined on a human subject afflicted, for two years duration, with moderately severe rosacea and pustular lesions. […] The subject received topical metronidazole in a carbomer gel composition (Metrogel™) applied in the morning. Topical loloatin B (which was obtained by fermentation of the Bacillus deposited as ATCC 55797 generally following the methods described in WO98/04584) was applied in the evening. The loloatin was first dissolved in a minimal amount of alcohol which was then mixed with Lubriderm™ lotion to provide 1% w/v formulation.

Experiment [3] deals with rosacea. To be noted: metronidazole administered topically twice daily; cited from earlier work.

Take “cyclo[L-Val-L-Orn-L-Leu-D-Tyr-L-Pro-L-Phe-D-Phe-L-Asn-L-Asp-L-Trp] (cyclo(V[Orn]L[dY]PF[dF]NDW); SMILES CC(C)C[C@@H]1NC(=O)[C@H](CCCN)NC(=O)[C@H](C(C)C)NC(=O)[C@H](Cc2c[nH]c3ccccc23)NC(=O)[C@H](CC(=O)O)NC(=O)[C@H](CC(N)=O)NC(=O)[C@@H](Cc2ccccc2)NC(=O)[C@H](Cc2ccccc2)NC(=O)[C@@H]2CCCN2C(=O)[C@@H](Cc2ccc(O)cc2)NC1=O) [loloatin B]”: in the experiment with rosacea [1] (combined Metrogel morning / 1% loloatin B evening, throughout the trial period (two years)), the “control of the condition” value is on record as “effectively controlled”. In addition, in the experiment with rosacea [1] (combined treatment Metrogel morning / 1% loloatin B evening), the “healing time of the lesions” value lay in the range of 2 to 3 days. In the experiment with rosacea [1] (topical Metrogel overlayed with Lubriderm in the morning plus 1% loloatin B in Lubriderm in the evening), the “course of the rosacea” value is listed as “Progressive improvement”. For the same compound, the “improvement in the rosacea on reinstituting the regimen” value in the experiment on rosacea [2] (each time once daily Metrogel and once daily loloatin was reinstituted) is listed as “significant improvement”. Besides, the “improvement in the rosacea” value in the experiment with rosacea [2] (topical Metrogel in the morning plus 1% w/v loloatin B in Lubriderm lotion in the evening, after one month) is “Significant improvement”.

Regarding `Cc1ncc([N+](=O)[O-])n1CCO` [metronidazole, reference compound], in the experiment on rosacea [3], the “patients who do not benefit from treatment” value is given as “about 50%”. For the same compound, the “benefit of previous treatments” value in the experiment with rosacea [2] (previous treatments with metronidazole, same subject) is listed as “without benefit”.
